From patent US20060069157A1, “Method of ameliorating or abrogating the effects of a neurodegenerative disorder, such as Huntington's disease, by sodium butyrate chemotherapy” (U.S. DEPARTMENT OF VETERANS AFFAIRS, priority 2004, published 2006)
Marks after values point to notes of the source that are not given here.

Columns and labels:
[1] = test system: R6/2 transgenic mouse model of HD; test: Rotarod motor performance in R6/2 mice; assay type: in vivo; conditions: at 90 days, vs PBS-treated R6/2 mice
Method: (§1) Intraperitoneal Dosing: Based upon previous studies (Egorin et al., 1999), a dose response study was performed, treating groups of wild type mice (n=10) and littermate R6/2 mice (n=20) with 100, 200, 400, 600, 1,200, 5,000, and 10,000 mg/kg daily intraperitoneal injection (100 Êl) of sodium butyrate (Acros Organics/Fisher Scientific) dissolved in PBS and made fresh daily. Control groups were treated with PBS injection or untreated. Approximately 240 mice were used for behavioral and survival analyses.
Clinical Assessment: Both motor performance and body weight were measured throughout the study. Training sessions were given on days 21 and 22 to acclimate the mice to the rotarod apparatus (Columbus Instruments, Columbus, Ohio). Motor performance (constant rotation at 16 rpm) was assessed weekly from 23-63 days of age and twice weekly from 63 days of age in the sodium butyrate-treated, PBS-treated R6/2 mice, and wild type littermate control mice. Three 60 sec trials were given during each session and averaged. Body weights were recorded twice weekly at the same time of day in all groups.
Statistics: The data are expressed as the mean+standard error of the mean. Statistical comparisons of rotarod, weight data, and histology data were compared by ANOVA or repeated measures ANOVA. Survival data was analyzed by the Kaplan-Meier survival curves.

[2] = test system: MKP-1, α-globin, β-globin, preproenkephalin mRNA; test: Northern blotting of brain mRNAs; assay type: in vivo, mouse; conditions: percentage of untreated R6/2, normalized to β-actin
Method: Northern Blotting: Two micrograms of total RNA from brain samples of sodium butyrate-treated and untreated R6/2 and wild type mice (n=4 each) were separated on a 1.2% agarose 3% formaldehyde gel in 1× MOPS buffer, electrophoretically transferred to a nylon membrane (Genescreen Ill.) in 1× TAE, and dried in a standard utility oven at 65 βC. cDNA probes were prepared from IMAGE clones (Research Genetics, _-globin 555069, _-globin 318205, MKP-1 4235972), or cDNAs described in previous studies (enkephalin and _-actin probe sequences) (Luthi-Carter et al., 2002). Hybridizations and washes were conducted as previously described (Luthi-Carter et al. 2002). Blots were quantitated using a Molecular Dynamics Phosphorimager and its accompanying ImageQuant software. Signals for target mRNAs were expressed as ratios to _-actin signals (on the same blot), and the data was analyzed by unpaired two-tailed Student's t-test.

Sp1 = Sp1 acetylation immunoprecipitation and Western blot analysis; assay type: in vivo, mouse; conditions: 1.2 g/kg/day i.p. for two weeks
Method: Sp1 Acetylation Immunoprecipitation and Western Blot Analysis: At 42 days of age, groups (n=6) of R6/2 mice were treated with daily 1.2 g/kg sodium butyrate or PBS intraperitoneal injections for two weeks. The mice were euthanized and tissue lysates were obtained by homogenizing each brain sample with 100 mM Tris (pH 7.4) buffer containing 1% Triton-X 100, 150 mM NaCl, 1 mM sodium orthovanadate, 5 mM sodium fluoride, 3 mM PMSF, 3 mM DTT, 0.5 Êg/ml leupeptin, and 10 Êg/ml aprotinin. To monitor Sp1 acetylation in vivo, tissue lysates were precleared by the addition of 30 Êl of protein A-sepharose (50% v/v slurry) for 1 hr at 4° C. and incubated with 2 Êg of Sp1 antibody for 2-4 hr. Twenty-five Êl of protein A-sepharose was added to lysates and left for 1 hr at […]. All beads were collected by centrifugation and washed twice with lysis buffer and once with PBS. The samples were boiled and divided into equal aliquots before separation on SDS-PAGE. Samples were electrophoresed under reducing conditions on 8% polyacrylamide gels. Proteins were then transferred to nitrocellulose membrane (BioRad, Hercules, Calif.). […] Proteins immunoreactive to acetyl lysine were detected by using an acetyl-lysine specific antibodies (Upstate Biotechnology, Lake Placid, N.Y., 1:1000 dilution). Immunoreactive proteins were detected according to an enhanced chemiluminescent protocol (Amersham, Piscataway, N.J.). […]

[3] = test system: R6/2 transgenic mouse model of HD; test: Survival of R6/2 mice, intraperitoneal dose response; assay type: in vivo
Text: Animals: The Bedford VA Medical Center laboratories have maintained a stable colony of R6/2 HD mice for over 6 years, with founders originating from Jackson Laboratories (Bar Harbor, Me., USA). Male transgenic HD mice of the R6/2 strain were bred with females from their background strain (B6CBAFI/J). Offspring were genotyped using a PCR assay on tail DNA. We have standardized criteria to ensure homogeneity of the cohorts within the testing groups (Dedeoglu et al., 2002). Mice were randomized from 28 litters all within 3 days from the same ‘f’ generation. Body weights were taken at 20 days and mice were equally distributed according to weight within each cohort. Mice under 7 g at 20 days were excluded from the experiments. The animals were housed 5/cage under standard conditions with free access to water and food. The mice were handled under the same conditions by one investigator. Since we have not observed gender differences in survival in the R6/2 transgenic HD mouse model (Ferrante et al., 2000), female mice were used in the experimental paradigms. These experiments were carried out in accordance with the NIH Guide for the Care and Use of Laboratory Animals, and were approved by both the Veterans Administration and Boston University Animal Care Committees.
as §1, with “Control groups were treated with PBS injection or untreated. Approximately 240 mice were used for behavioral and survival analyses.” left out
Survival: R6/2 mice were assessed for morbidity and mortality twice daily, mid morning and late afternoon. Motor performance and ability to feed were closely monitored and used as the basis for determining when to euthanize the mice. […] In addition, deaths occurred overnight and were recorded the following morning. […]
Statistics: The data are expressed as the mean+standard error of the mean. […] Survival data was analyzed by the Kaplan-Meier survival curves.

In the case of `CCCC(=O)[O-].[Na+]` [sodium butyrate], the “percentile increase in rotarod performance” value (“percentile increase” for short) ([1]; 400 mg/kg) is reported as 24.0%, the “percentile increase” value ([1]; 600 mg/kg) is reported as 27.5% and the “percentile increase” value ([1]; 1,200 mg/kg) is reported as 34.9%. For the same compound, the “Northern, NaBu Txd R6/2 vs R6/2” value ([2]; MKP-1 mRNA, Cortex, p<0.0001) was 204%^e, the “Northern, NaBu Txd R6/2 vs R6/2” value ([2]; Preproenkephalin mRNA, Striatum) was 98% and the “Northern, NaBu Txd R6/2 vs R6/2” value ([2]; α-globin mRNA, Cortex, p<0.01) was 159%^c. For the same compound, the “Northern, NaBu Txd R6/2 vs R6/2” value ([2]; β-globin mRNA, Cortex, p<0.001) was 206%^d, the “basal levels of Sp1” value (Sp1; R6/2 mice) was “did not change” and the “Sp1 acetylation levels in brain” value (Sp1; R6/2 mice vs PBS) was “increased”. The extension of survival ([3]; 1,200 mg/kg/d i.p. from day 21, vs PBS-treated R6/2 mice, p<0.001) was 20.8%, the “time at which mice became moribund and died” value ([3]; 5 g/kg/d i.p., treatment initiated at 21 days) was 1 to 11 days and the “morbidity and mortality at onset of treatment” value ([3]; 5,000 and 10,000 mg/kg/d i.p.) was “marked rapidly-coursing morbidity and mortality”.
